Assay results: PMC8037310, “Thrombin-Derived Peptides Potentiate the Activity of Gram-Positive-Specific Antibiotics against Gram-Negative Bacteria” (Molecules, 2021)
Where two headings read alike, the source gives them in different places. Peptide text beside a SMILES is read from it.

Experiments:
[1] = system: defibrinated sheep blood (red blood cells); experiment: Hemolysis assay; format: cell-based; conditions: 200 µg/mL compound, 20 h incubation at 37 °C with defibrinated sheep blood, PBS 0.002% Tween20, absorbance 415 nm, relative to 0.1% Triton X-100; n=3 technical replicates
Method in brief: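 % hemolysis is supernatant absorbance at 415 nm, minus the buffer-only background, relative to 0.1% Triton X-100 lysis. Compound dilutions (200–1.56 µg/mL before adding cells) were incubated with an equal volume of red cells for 20 h at 37 °C and 500 rpm. Cells were washed and normalized in PBS/0.002% Tween20 to about 2.5 A415 at full lysis.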

E. coli BW25113 [2] = experiment: microbe, parasite or virus in culture; format: cell-based, Escherichia coli
Description: (§1) All peptides were screened for antimicrobial activity against E. coli BW25113, E. coli ATCC25922, and E. coli W3110. A select group of the peptides was further tested against E. coli mcr-1, E. coli EQASmcr-1 (EQAS 2016 412016126), E. coli EQASmcr-2 (EQAS 2016 KP37), E. coli EQASmcr-3 (EQAS 2017 2013-SQ352), K. pneumoniae ATCC13883, P. aeruginosa ATCC27853, and A. baumannii ATCC17978. The antimicrobial assay was performed according to CLSI guidelines. Bacteria were plated out directly from their glycerol stocks on blood agar plates, incubated overnight at 37 °C, and then kept in the fridge. The blood agar plates were only used for 2 weeks and then replaced.
(§2) One colony from a blood agar plates was inoculated in Lysogeny Broth (LB) at 37 °C until a 0.5 optical density at 600 nm (OD600) was reached (compared to the sterility control of LB). The bacterial suspension was diluted in fresh LB to 2.0 × 10^6 CFU/mL. The serial dilutions were prepared in polypropylene microtiter plates: a stock of the test compounds was prepared with a 2x final concentration in LB. Moreover, 100 µL of the stock was added to the wells of the top row of which 50 µL was used for the serial dilution. The bottom row of each plate was used as the positive (50 µL of LB) and negative controls (100 µL of LB) (6 wells each). Furthermore, 50 µL of the 2.0 × 10^6 CFU/mL bacterial stock was added to each well except for the negative controls, adding up to a total volume of 100 µL per well. The plates were sealed with a breathable seal and incubated for 20 h at 37 °C and 600 rpm.
(§3) Two 96-well plates were required per compound. A serial dilution of the compound was performed on two plates from row A–G using with LB as medium. Row H was filled with 25 µL medium. On a separate plate a negative control (8 wells, 100 μL medium) was prepared. For all concentrations of antibiotic a specific stock was prepared. 25 µL medium was added to the 0 µg/mL antibiotic columns (plate I, column 1–3). Of each antibiotic stock 25 µL was added to three columns to obtain triplicates for every condition. Both plates contained 50 µL in each well to which 50 µL bacterial stock was added (see the protocol of the MIC assays) and the plates were sealed. After incubation for 20 h at 37 °C while shaking, the breathable seals were removed and the density of the bacterial suspensions measured at 600 nm (OD600) using a Tecan Spark plate reader. The OD600 values were transformed to a 2D gradient with the negative control as minimum and the positive control (wells G1, G2, and G3) as maximum in excel. The FICi was calculated using Equation (1) with a FICi ≤ 0.5 indicating synergy. FICi = (MSCa/MICa) + (MSCb/MICb),(1)
(§4) Calculation of the FICi: MSCa = concentration of the […] in combination with the antibiotic that results in the lowest FICi. MICa = MIC of the antibiotic without synergist (row G). MSCb = concentration of the synergist in combination with the antibiotic that results in the lowest FICi. MICb = MIC of the synergist itself (Column 1–3, plate I).

A. baumannii ATCC17978 = experiment: microbe, parasite or virus in culture; format: cell-based, Acinetobacter baumannii
Description: as §1, §2, §3, §4

E. coli BW25113 [3] = experiment: Checkerboard assay with erythromycin; format: cell-based, Escherichia coli
E. coli BW25113 [4] = experiment: microbe, parasite or virus in culture; format: cell-based, Escherichia coli; remark: listed apart in the source
K. pneumoniae ATCC13883 = experiment: Checkerboard assay with rifampicin; format: cell-based, Klebsiella pneumoniae; conditions: K. pneumoniae ATCC13883
Description: as §1, §2, §3, §4

E. coli mcr-1 = format: cell-based, Escherichia coli; conditions: E. coli mcr-1
Method in brief: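 Checkerboard of peptide serial dilutions against rifampicin concentrations in triplicate, in LB with 1.0 × 10^6 CFU/mL final inoculum after mixing the 2.0 × 10^6 CFU/mL stock 1:1, 20 h at 37 °C shaking. OD600 read; FICi = MSCa/MICa + MSCb/MICb, ≤0.5 taken as synergy.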

[5] = system: E. coli EQASmcr-3 (EQAS 2017 2013-SQ352); format: cell-based, Escherichia coli; conditions: E. coli EQASmcr-3
E. coli BW25113 [6] = format: cell-based, Escherichia coli
[7] = system: E. coli EQASmcr-1 (EQAS 2016 412016126); format: cell-based, Escherichia coli
[8] = peptide concentration in the combination with rifampicin giving the lowest FICi
[9] = rifampicin concentration in the combination giving the lowest FICi

## CC[C@H](C)[C@H](NC(=O)[C@H](Cc1c[nH]c2ccccc12)NC(=O)[C@H](CCCCN)NC(=O)[C@H](CCCCN)NC(=O)[C@H](CC(C)C)NC(=O)[C@H](CCCNC(=N)N)NC(=O)[C@H](Cc1ccccc1)NC(=O)[C@@H](N)C(C)C)C(=O)N[C@@H](CCC(N)=O)C(=O)N[C@@H](CCCCN)C(=O)N[C@H](C(=O)N[C@@H](C)C(N)=O)C(C)C [peptide 19] (H-VFRLKKWIQKVA-NH2)
[1]
  Hemolysis: 1.0%
E. coli BW25113 [2]; synergist alone, E. coli BW25113, from checkerboard with vancomycin
  MICpeptide: 200 µg/mL
E. coli BW25113 [2]; synergist concentration in the combination with vancomycin giving the lowest FICi, E. coli BW25113
  MSCpeptide: 12.5 µg/mL
E. coli BW25113 [2]; vancomycin concentration in the combination giving the lowest FICi, E. coli BW25113
  MSCvanco: 6.25 µg/mL
A. baumannii ATCC17978; ATCC17978, 20 h
  FICi: 0.0938
A. baumannii ATCC17978; peptide alone, A. baumannii ATCC17978
  MICpeptide: 100 µg/mL
A. baumannii ATCC17978; peptide concentration in the combination with rifampicin giving the lowest FICi, A. baumannii ATCC17978
  MSCpeptide: 6.25 µg/mL
A. baumannii ATCC17978; rifampicin concentration in the combination giving the lowest FICi, A. baumannii ATCC17978
  MSCrif: 0.063 µg/mL
E. coli BW25113 [3]; erythromycin concentration in the combination with the synergist giving the lowest FICi, E. coli BW25113
  MSCery: 12.5 µg/mL
E. coli BW25113 [3]; synergist alone, E. coli BW25113, LB, 20 h 37 °C, from checkerboard with erythromycin
  MIC of the peptide (MICpep): 100 µg/mL
E. coli BW25113 [3]; synergist concentration in the combination with erythromycin giving the lowest FICi, E. coli BW25113, LB, 20 h 37 °C, OD600
  MSCpeptide, minimum synergistic concentration: 3.125 µg/mL
E. coli BW25113 [4]; BW25113, 20 h
  FICi: 0.0390
E. coli BW25113 [4]; novobiocin concentration in the combination giving the lowest FICi, E. coli BW25113
  MSCnovo: 3.125 µg/mL
E. coli BW25113 [4]; synergist alone, E. coli BW25113, from checkerboard with novobiocin
  MICpeptide: 200 µg/mL
E. coli BW25113 [4]; synergist concentration in the combination with novobiocin giving the lowest FICi, E. coli BW25113
  MSCpeptide: 6.25 µg/mL
K. pneumoniae ATCC13883; peptide alone
  MICpeptide: > 200 µg/mL
K. pneumoniae ATCC13883; [8]
  MSCpeptide: 6.25 µg/mL
K. pneumoniae ATCC13883; [9]
  MSCrif: 0.25 µg/mL
E. coli mcr-1; peptide alone
  MICpeptide: > 200 µg/mL
E. coli mcr-1; [8]
  MSCpeptide: 25 µg/mL
E. coli mcr-1; [9]
  MSCrif: 0.75 µg/mL
[5]; peptide alone
  MICpeptide: > 200 µg/mL
[5]; [8]
  MSCpeptide: 6.25 µg/mL
[5]; [9]
  MSCrif: 0.125 µg/mL
E. coli BW25113 [6]; BW25113, 20 h
  FICi: 0.0781
E. coli BW25113 [6]; synergist alone, E. coli BW25113, from checkerboard with rifampicin
  MICpep: 100 µg/mL
E. coli BW25113 [6]; synergist concentration in the combination with rifampicin giving the lowest FICi, E. coli BW25113
  MSCpep: 6.25 µg/mL
[7]; EQASmcr-1 (EQAS 2016 412016126, 20 h)
  FICi: 0.0938
[7]; peptide alone, E. coli EQASmcr-1
  MICpeptide: > 200 µg/mL
[7]; peptide concentration in the combination with rifampicin giving the lowest FICi, E. coli EQASmcr-1
  MSCpeptide: 12.5 µg/mL
[7]; rifampicin concentration in the combination giving the lowest FICi, E. coli EQASmcr-1
  MSCrif: 0.5 µg/mL
